Assay results reported in patent US20260355199A1, “COMPOSITIONS AND METHODS FOR TREATING OR PREVENTING NONALCOHOLIC STEATOHEPATITIS (NASH), ANOREXIA, DEPRESSION, ENDOMETRIOSIS, AND OTHER DISEASES OR DISORDERS” (priority 2022, published 2026).
“Also recorded” adds a separate entry of the source.

Tests used:
TET2 [1] = test: TET2 protein in human MDMs; type: cell-based; details: 24 h
Protocol: Bobcat339 Treatment of Cultured Cells Bobcat339 powder (Sigma-Aldrich, SML2611) was freshly dissolved in DMSO at a concentration of 5 mM and filtered through a 0.22 micron. Cells grown at a density of 80-90% were incubated in growth media with vehicle (DMSO) or Bobcat339 at a final concentration of 10 μM for 24 h, followed by RNA and protein extraction.
For cultured MDMs, cells were primed with CM-Endo or TGF-β1 (PeproTech, 100-21) for 36-48 h (to increase TET3 expression) before Bobcat339 treatment.
Cells were homogenized in situ using a pipette tip in 2×SDS-sample buffer with 10% β-mercaptoethanol at RT followed by heating at 100 °C for 5 min with occasional vortexing. The samples were loaded onto a 4-15% gradient SDS gel (Bio-rad, 456-8086) (10 μL/well) and transferred to nitrocellulose membranes, followed by Western blot analysis. The antibodies used were anti-TET3 (diluted at 1:1000, GeneTex, GTX121453 for human; diluted at 1:1000, Active Motif, 61395 for mouse), anti-TET2 (diluted at 1:1000, Proteintech, 21207-1-AP for human/mouse), anti-TGF-β1 (diluted at 1:1000, Abcam, ab215715 for human), anti-Lin28A (diluted at 1:1000, Cell Signaling, 3978S), and HRP-conjugated anti-GAPDH (dilution 1:5000; Proteintech, HRP-60004). The secondary antibody was HRP-linked Anti-rabbit IgG (dilution 1:10,000; Rockland, 611-1322).

TET2 [2] = test: TET2 protein stability (cycloheximide) in MDMs; type: cell-based, human; details: 10 μM, with cycloheximide
Protocol: For TET protein stability assay of MDMs, cells in 24-well plates were incubated with vehicle or Bobcat339 at a final concentration of 10 μM for 3 h, followed by addition of cycloheximide (CHX, Cell Signaling, 2112) at a final concentration of 50 μg/mL. Proteins were harvested at 0, 2, 4, and 6 hours after addition of CHX.

Agrp promoter = test: ChIP-qPCR at the Agrp promoter in mouse ARC; type: in vivo; details: leptin 5 mg/kg
Protocol: To prepare antibodies, 5 μl (packed volume) of ChIP grade Dynabeads Protein G (Invitrogen, Thermo Scientific, 10004D) were washed twice with 1 ml of binding buffer (0.2% Tween-20 in PBS), followed by incubation on a rotator with 10 μg of rabbit polyclonal anti-TET3 (Active Motif, 61395) (FIG. 12A), anti-STAT3 (Proteintech, 10253-2-AP), anti-NCOR1 (Cell Signaling, 5948S) (Hainberger et al., 2020, Front Immunol., 11:579), anti-HDAC4 (Active Motif, 40969) (FIG. 12B), anti-H3K9ac (Active Motif, 39137) (validated by the vendor), or preimmune rabbit IgG (as a negative control) in 350 μl of binding buffer at 4 °C overnight (Gao, Y. et al., 2020, Advanced Science, 7:2002518; Hainberger, D. et al., 2020, Frontiers in Immunology, 11:579). Antibody bound beads were washed twice with 1 ml of binding buffer, resuspended in 50 μl of dilution buffer (0.01% SDS, 1.1% Triton X-100, 1.2 mM EDTA, 16.7 mM Tris-HCl at PH 8.0, 167 mM NaCl), and kept on ice until use. To prepare chromatin, freshly isolated ARCs (2 ARCs from one mouse per ChIP, FIG. 6D and FIG. 6I) were washed twice with 1 ml of cold-PBS, followed by cross-linking in 1% paraformaldehyde/PBS on a rotator at room temperature for 15 min. Glycine buffer (150 mM final concentration) was added and incubated in rotation at room temperature for 10 min to quench cross-linking. Cross-linked ARCs were washed twice with PBS and homogenized (5-10 strokes) using a disposable pellet pestle (Fisher Scientific, 12-141-368) in 300 μl of cold cell lysis buffer (50 mM Tris-HCl at PH 8.0, 140 mM NaCl, 1 mM EDTA, 10% glycerol, 0.5% NP-40, 0.25% Triton X-100), followed by incubation at 4 °C for 20 min to lyse the plasma membrane. […]

Compound	TET2 protein level (TET2 [1]; 10 μM)	TET2 protein level (TET2 [1]; 10 mM (so in the source))	TET2 protein stability (TET2 [2])	histone acetylation (H3K9ac) at the Agrp promoter (Agrp promoter)	binding of STAT3, TET3, NCOR1, and HDAC4 to the Agrp promoter (Agrp promoter; AAV-sgTet3 mice)	binding of STAT3, TET3, NCOR1, and HDAC4 to the Agrp promoter (Agrp promoter; control mice)
Nc1nc(=O)n(-c2cccc(-c3ccccc3)c2)cc1Cl [Bobcat339, 4-Amino-1-[1,1′-biphenyl]-3-yl-5-chloro-2(1H)-pyrimidinone]	not affected; also recorded: not TET2	not significantly affected	destabilized both proteins			
leptin: adipose hormone; mouse leptin L3772-1MG or human leptin L4146-1MG, Sigma Aldrich				reduction was observed in histone acetylation at the Agrp promoter	failed to do so in AAV-sgTet3 injected mice	increased binding of STAT3, TET3, NCOR1, and HDAC4 to the Agrp promoter
